Results from patent US20100056544A1, “Salts with CRTH2 Antagonist Activity” (Oxagen Limited, priority 2007, published 2010).
Like-named read-outs stand apart in the source and are kept apart here. Blank lines part the entries; values can stand above or below the compound they belong to.

How the values were obtained:
[1] = cited from earlier work; for pKa of base: Table 5; for pKa 1: pKa value of base, Tables 2-4
[2] = Solubility of the salts in water determined by HPLC, with pH of the filtered mixtures; details: for Solubility: HPLC grade water, stirred 18 hours at 15 to 25° C., filtered, HPLC
[3] = basic solubility screen of Compound 1 free acid in solvents; assay type: physicochemical; details: for Solution Yes/No 20 vol R.T.: 50 mg, stirred at 15 to 25° C.
[4] = pH of the filtered mixtures in water

Compound: OCCN1CCCC1 [1-(2-Hydroxyethyl)pyrrolidine]
- pKa of base [1]: 9.4
- pKa 1 [1]: 9.4

Compound: OCCN1CCOCC1 [4-(2-Hydroxyethyl)morpholine]
- pKa of base [1]: 7.4
- pKa 1 [1]: 7.4

- pH [2]: 8
- Solubility [2]: 4.98 mg/mL
Compound: Cc1c(Cc2ccc3ccccc3n2)c2cc(F)ccc2n1CC(=O)O [Ammonium, (5-fluoro-2-methyl-3-quinolin-2-ylmethyl-indol-1-yl)acetic acid]

Compound: C[N+](C)(C)CC(=O)O [Betaine]
- pKa of base [1]: 12.2

Compound: C[N+](C)(C)CCO [Choline]
- pKa of base [1]: >11
- pKa 1 [1]: >11

- solubility in NMP (50 mg retained in 20 vol) ([3]; NMP at 15 to 25° C. after obtaining a solution at 100° C.): ≥ 50 mg per ml
- Solution Yes/No 20 vol reflux ([3]; solvent Acetone): No
- Solution Yes/No 40 vol reflux ([3]; solvent Acetone): No
- Solution on cooling to R.T. ([3]; solvent Acetone): No
- Solution Yes/No 20 vol R.T. ([3]; solvent Acetone): No
- Solution Yes/No 20 vol reflux ([3]; solvent Acetonitrile): No
- Solution Yes/No 40 vol reflux ([3]; solvent Acetonitrile): No
- Solution on cooling to R.T. ([3]; solvent Acetonitrile): No
- Solution Yes/No 20 vol R.T. ([3]; solvent Acetonitrile): No
- Solution Yes/No 20 vol reflux ([3]; solvent Chloroform): No
- Solution Yes/No 40 vol reflux ([3]; solvent Chloroform): No
- Solution on cooling to R.T. ([3]; solvent Chloroform): No
- Solution Yes/No 20 vol R.T. ([3]; solvent Chloroform): No
- Solution on cooling to R.T. ([3]; solvent DMF): No
- Solution Yes/No 20 vol R.T. ([3]; solvent DMF): No
- Solution Yes/No 20 vol reflux ([3]; solvent DMF, heated to 100° C.): No
- Solution Yes/No 40 vol reflux ([3]; solvent DMF, heated to 100° C.): Yes
- Solution on cooling to R.T. ([3]; solvent DMSO): No
- Solution Yes/No 20 vol R.T. ([3]; solvent DMSO): No
- Solution Yes/No 20 vol reflux ([3]; solvent DMSO, heated to 100° C.): Yes
- Solution Yes/No 20 vol reflux ([3]; solvent Ethanol): No
- Solution Yes/No 40 vol reflux ([3]; solvent Ethanol): No
- Solution on cooling to R.T. ([3]; solvent Ethanol): No
- Solution Yes/No 20 vol R.T. ([3]; solvent Ethanol): No
- Solution Yes/No 20 vol reflux ([3]; solvent Ethyl acetate): No
- Solution Yes/No 40 vol reflux ([3]; solvent Ethyl acetate): No
- Solution on cooling to R.T. ([3]; solvent Ethyl acetate): No
- Solution Yes/No 20 vol R.T. ([3]; solvent Ethyl acetate): No
- Solution Yes/No 20 vol reflux ([3]; solvent Heptanes): No
- Solution Yes/No 40 vol reflux ([3]; solvent Heptanes): No
- Solution on cooling to R.T. ([3]; solvent Heptanes): No
- Solution Yes/No 20 vol R.T. ([3]; solvent Heptanes): No
- Solution Yes/No 20 vol reflux ([3]; solvent IPA): No
- Solution Yes/No 40 vol reflux ([3]; solvent IPA): No
- Solution on cooling to R.T. ([3]; solvent IPA): No
- Solution Yes/No 20 vol R.T. ([3]; solvent IPA): No
- Solution Yes/No 20 vol reflux ([3]; solvent Methanol): No
- Solution Yes/No 40 vol reflux ([3]; solvent Methanol): No
- Solution on cooling to R.T. ([3]; solvent Methanol): No
- Solution Yes/No 20 vol R.T. ([3]; solvent Methanol): No
- Solution on cooling to R.T. ([3]; solvent NMP): Yes
- Solution Yes/No 20 vol R.T. ([3]; solvent NMP): No
- Solution Yes/No 20 vol reflux ([3]; solvent NMP, heated to 100° C.): Yes
- Solution Yes/No 20 vol reflux ([3]; solvent TBME): No
- Solution Yes/No 40 vol reflux ([3]; solvent TBME): No
- Solution on cooling to R.T. ([3]; solvent TBME): No
- Solution Yes/No 20 vol R.T. ([3]; solvent TBME): No
- Solution Yes/No 20 vol reflux ([3]; solvent Toluene): No
- Solution Yes/No 40 vol reflux ([3]; solvent Toluene): No
- Solution on cooling to R.T. ([3]; solvent Toluene): No
- Solution Yes/No 20 vol R.T. ([3]; solvent Toluene): No
- Solution Yes/No 20 vol reflux ([3]; solvent Water): No
- Solution Yes/No 40 vol reflux ([3]; solvent Water): No
- Solution on cooling to R.T. ([3]; solvent Water): No
- Solution Yes/No 20 vol R.T. ([3]; solvent Water): No
- Solubility ([3]; variety of solvents (Table 1), organic solvent or mixture, thermodynamic from solid): < 25 mg/mL
- Solubility [2]: 0.05 mg/mL
- pH [2, 4]: 7
Compound: Cc1c(Cc2ccc3ccccc3n2)c2cc(F)ccc2n1CC(=O)O [Compound 1, (5-fluoro-2-methyl-3-quinolin-2-ylmethyl-indol-1-yl)acetic acid]

Compound: c1c[nH]cn1 [Imidazole]
- pKa of base [1]: 7
- pKa 1 [1]: 7

Compound: CNC[C@H](O)[C@@H](O)[C@H](O)[C@H](O)CO [N-methyl Glucamine]
- pKa of base [1]: 8

- Solubility [2]: 32.36 mg/mL
- pH [2, 4]: 12
- pH ([2]; pH of the filtered mixtures in water, listed as potassium): 12
Compound: Cc1c(Cc2ccc3ccccc3n2)c2cc(F)ccc2n1CC(=O)O [Potassium, (5-fluoro-2-methyl-3-quinolin-2-ylmethyl-indol-1-yl)acetic acid]
- pKa of base [1]: 14.0

- Solubility [2]: 84.28 mg/mL
- pH [2, 4]: 9
- solubility in water compared (in words) ([2]; water): most soluble
Compound: Cc1c(Cc2ccc3ccccc3n2)c2cc(F)ccc2n1CC(=O)O [Sodium, (5-fluoro-2-methyl-3-quinolin-2-ylmethyl-indol-1-yl)acetic acid]
- pKa of base [1]: 14.0

- Solubility [2]: 3.26 mg/mL
- pH [2, 4]: 9
Compound: Cc1c(Cc2ccc3ccccc3n2)c2cc(F)ccc2n1CC(=O)O [Tris, (5-fluoro-2-methyl-3-quinolin-2-ylmethyl-indol-1-yl)acetic acid]
- pKa of base [1]: 8

Compound: Deanol
- pKa of base [1]: 8.8
- pKa 1 [1]: 8.8
